# From patent US8338624B2, “Isoflavone derivatives and uses thereof” (Yeda Research and Development Co., Ltd., priority 2007, dated 2012)
# Residues, ends and D or L forms follow the SMILES beside them. *: point of attachment. Cbz = O=C(OCc1ccccc1)*; CH2F = FC*
# What was measured:
# [1] = system: T47D mammary cancer cells; experiment: DNA synthesis by [3H]-thymidine incorporation, T47D cells; type: cell-based, human; conditions: at 10 μM
# Experimental: (§1) Cells were cultured in MEM supplemented with 10% FCS and antibiotics. Cells were grown to subconfluence and then treated with various hormones or agents as described by Somjen et al. (Somjen et al., 1998). The cells were characterized in terms of expression of mRNAs for estrogen […] by real time PCR, and the results are summarized in Table 1. N87, 320DM and H295R cells expressed mRNAs for both ERs. The ratio of ERα to ERβ was 1:8.5, 1:30 and 1:1.8 in N87, 320DM and H295R cells, respectively. Ovarian A2780 and prostate C4-24 cells expressed mainly mRNA for ERβ, and the ratio of ERβ to ERα was 300:1 and 70:1, respectively. MLS ovarian cells expressed mRNA only for ERβ. The ratio of ERα to ERβ in T47D cells has been reported to be 9:1.
# (§2) [^3H]-Thymidine incorporation into DNA was used for the assessment of the various effects (proliferative or inhibitory) of various isoflavones, isoflavone derivatives and known cytotoxic drugs in the above-mentioned cells. Cells were grown until subconfluence using conditions described in Somjen et al. (Somjen et al., 1998) and then treated with various agents for 24 or 48 h as indicated. At the end of incubation, [^3H]-thymidine was added for two hours. Cells were then treated with 10% ice-cold trichloroacetic (TCA) for 5 min and washed twice with 5% TCA and then with cold ethanol. The cellular layer was dissolved in 0.3 ml of 0.3 M NaOH, aliquots were taken for counting radioactivity, and [^3H]-thymidine incorporation into DNA was calculated.
# [2] = system: Human umbilical vascular smooth muscle cells (VSMC); experiment: DNA synthesis by [3H]-thymidine incorporation, normal VSMC; type: cell-based; conditions: for effect on DNA synthesis: at 300 nM
# Experimental: Human umbilical vascular smooth muscle cells (VSMC) sensitive to estrogen, were grown in culture as described above, and used only at passages 1-3, when expression of smooth muscle actin was clearly demonstrable (Somjen et al. 2000). The ratio of the expression of mRNA for ERα to ERβ was 2.7:1.
# as §2
# [3] = system: human prostate C4-2B cancer cells; experiment: DNA synthesis by [3H]-thymidine incorporation, C4-2B cells; type: cell-based
# Experimental: as §1, §2
# [4] = system: H295R adrenocarcinoma cells; experiment: DNA synthesis by [3H]-thymidine incorporation, H295R cells; type: cell-based, human; parameters: stimulation of DNA synthesis: concentration or dose not given beside the values; conditions: for inhibition at 3 µM: Homo sapiens, NCI-H295R, read-out: inhibition of DNA synthesis / growth
# Experimental: as §1, §2
# [5] = system: MLS ovarian xenografts; experiment: MLS ovarian xenografts in nude mice; type: in vivo; conditions: daunomycin iv 200 μg/mouse every other day
# Description: Female CD1 nude mice (8-week old, ˜30 g) were housed and handled with free access to food and water in the animal facility according to the guidelines (1996) of the Institutional Animal Care and Use Committee of the Weizmann Institute of Science, Rehovot, Israel.
# Thirty female nude mice (8 weeks old) were inoculated sub-cutaneously (sc) with MLS ovarian carcinoma cells (1.5×10^6/mouse). Ten days later, when the tumors were palpable, the mice were randomly divided into 3 groups (8-10 mice/group). The mice in each group were iv injected every other day either with a vehicle (Neowater, a solubilization enhancer, 0.1 ml), daunomycin dissolved in Neowater (200 μg/mouse in 0.1 ml vehicle, total dose during treatment 1 mg/mouse), or compound 9 dissolved in Neowater (400 μg/mouse in 0.1 ml vehicle, total dose during treatment 2 mg/mouse). During treatment, body weight was recorded to monitor toxicity of the treatment, and the tumors were measured with an external caliper. Tumor volume was calculated using the formula length×width×height×π/6. Statistical significance was assessed using student's t test, and differences were considered significant at p<0.05.
# [6] = system: ERβ compared to ERα; conditions: transfected cells; cited from earlier work
# [7] = system: A2780 ovarian cancer cells; experiment: DNA synthesis by [3H]-thymidine incorporation, A2780 cells; type: cell-based, human; conditions: for inhibition at 25 µM: read-out: inhibition of cell proliferation
# Experimental: as §1, §2
# [8] = system: 320DM human colon cancer cells; experiment: DNA synthesis by [3H]-thymidine incorporation, 320DM cells; type: cell-based; conditions: for effect on DNA synthesis / growth: 30 to 3000 nM
# Experimental: as §1
# as §2, with “(Somjen et al., 1998) and then treated with various agents for 24 or 48 h as indicated.” left out
# [9] = system: N87 gastric carcinoma cells; experiment: DNA synthesis by [3H]-thymidine incorporation, N87 cells; type: cell-based, human
# Experimental: as §1, §2
# [10] = system: MLS ovarian cancer cells; experiment: DNA synthesis by [3H]-thymidine incorporation, MLS cells; type: cell-based, human
# Experimental: as §1, §2
# [11] = apoptosis inhibitor at 25 μM alone
# [12] = ICI 182780 (1.1 μM) + E2 0.3 μM
# [13] = estradiol 30 nM + 1.1 μM ICI 182780
compound,measurement,setting,value
"O=C(O)COc1ccc2c(=O)c(-c3ccc(O)cc3)coc2c1 [Compound 6, 7-(O)-Carboxymethyl daidzein, reference compound]",effect on DNA synthesis,[1],stimulated DNA synthesis
same,effect on DNA synthesis,[2],stimulated DNA synthesis
same,effect on DNA synthesis,[3]; at 300 nM,stimulated DNA synthesis
"COc1cccc2c1C(=O)c1c(O)c3c(c(O)c1C2=O)C[C@@](O)(C(C)=O)C[C@@H]3O[C@H]1C[C@H](N)[C@H](O)[C@H](C)O1 [daunomycin, reference compound]",inhibition at 3 µM,[4]; at 3 μM,75%
same,reduction in mean body weight,[5],15%
same,deaths caused,[5]; 8-10 mice/group,2 mice
"O=c1c(-c2ccc(O)cc2)coc2cc(O)ccc12 [Compound 3, Daidzein, reference compound]",effect on DNA synthesis,[1],stimulated DNA synthesis
same,effect on DNA synthesis,[2],stimulated DNA synthesis
same,effect on DNA synthesis,[3]; at 3 μM,stimulated DNA synthesis significantly
same,sensitivity for activating transcription via ERβ compared to ERα,[6],100 fold
same,inhibition at 25 µM,[7]; Homo sapiens,30 to 40%
"COc1ccc(-c2coc3cc(O)cc(O)c3c2=O)cc1 [Compound 1, Biochanin A, reference compound]",effect on DNA synthesis / growth,[8],had no effect on growth
same,effect on DNA synthesis,[1],stimulated DNA synthesis
same,effect on DNA synthesis,[2],stimulated DNA synthesis
same,effect on DNA synthesis,[3]; at 3 μM,stimulated DNA synthesis significantly
same,effect on DNA synthesis,[4]; at 3 μM,had no effect on DNA synthesis
same,effect on DNA synthesis,[9]; at 3 μM,had no effect
"COC(=O)C[C@H](NC(=O)[C@H](C)NC(=O)[C@@H](NC(=O)OCc1ccccc1)C(C)C)C(=O)CF [Z-VADFK, Z-VAD-FMK Me ester, reference compound] (Cbz-Val-Ala-Asp(OMe)-CH2F)","DNA synthesis, ratio experimental/control (E/C)",[8]; Z-VADFK 25 μM alone,1.11 ± 0.08
same,effect on DNA synthesis,[8]; [11],had no effect on DNA synthesis
same,"DNA synthesis, ratio experimental/control (E/C)",[10]; Z-VADFK 25 μM alone,1.06 ± 0.1
same,effect on DNA synthesis,[10]; [11],had no effect on DNA synthesis
"O=c1c(-c2ccc(O)cc2)coc2cc(O)cc(O)c12 [Compound 2, Genistein, reference compound]",effect on [3H]-thymidine incorporation into DNA,[8]; 30 to 300 nM,significantly stimulated [^3H]-thymidine incorporation into DNA
same,effect on DNA synthesis,[3]; at 3 μM,stimulated DNA synthesis significantly
same,sensitivity for activating transcription via ERβ compared to ERα,[6],100 fold
same,inhibition at 25 µM,[7]; Homo sapiens,30 to 40%
"C[C@]12CC[C@@H]3c4ccc(O)cc4CC[C@H]3[C@@H]1CC[C@@H]2O [Compound E2, estradiol 17β, reference compound]","DNA synthesis, ratio experimental/control (E/C)",[8]; E2 30 nM alone (Table 3),2.06 ± 0.09
same,"DNA synthesis, ratio experimental/control (E/C)",[8]; E2 0.3 μM alone,1.87 ± 0.18
same,"DNA synthesis, ratio experimental/control (E/C)",[8]; E2 at 30 nM (Table 2),1.64 ± 0.13
same,activity at 0.03 µM,"[8]; Homo sapiens, estradiol 30 nM, read-out: [3H]-thymidine incorporation (% of control)",206%
same,"DNA synthesis, ratio experimental/control (E/C)",[10]; E2 30 nM alone (Table 3),2.35 ± 0.06
same,"DNA synthesis, ratio experimental/control (E/C)",[10]; E2 0.3 μM alone,1.70 ± 0.15
same,"DNA synthesis, ratio experimental/control (E/C)",[10]; E2 at 30 nM (Table 2),1.39 ± 0.03
same,activity at 0.03 µM,"[10]; Homo sapiens, estradiol 30 nM, read-out: DNA synthesis (% of control)",235%
same,activity at 0.3 µM,"[10]; Homo sapiens, estradiol 0.3 μM, read-out: DNA synthesis (% of control)",187%
same,"DNA synthesis, ratio experimental/control (E/C)",[2]; E2 at 30 nM,0.55 ± 0.12
same,"DNA synthesis, ratio experimental/control (E/C)",[3]; E2 at 30 nM,2.10 ± 0.10
same,"DNA synthesis, ratio experimental/control (E/C)",[4]; E2 at 30 nM,2.10 + .10
same,"DNA synthesis, ratio experimental/control (E/C)",[7]; E2 at 30 nM,1.42 ± 0.10
"N.N.O=C([O-])C1(C(=O)[O-])CCC1.[Pt+2] [carboplatin, reference compound]",inhibition of DNA synthesis / growth,[7]; at 3 μM,57%
"O=C(O)CCCc1oc2cc(O)cc(O)c2c(=O)c1-c1ccc(O)cc1 [Compound 5, 2-(3-Carboxypropyl)-5,7,4′-trihydroxyisoflavone]",effect on DNA synthesis / growth,[8],significantly stimulated [^3H]-thymidine incorporation into DNA
same,effect on DNA synthesis,[3]; at 300 nM,stimulated DNA synthesis
"COc1ccc(-c2c(CCCC(=O)NCCCCCCNC(=O)OC(C)(C)C)oc3cc(O)cc(O)c3c2=O)cc1 [Compound 7, 2-[3-carboxy-(6-tert-butoxycarbonylamino)-hexylamino-propyl]-7,5-dihydroxy-4′-methoxyisoflavone]",effect on DNA synthesis / growth,[8],inhibited significantly DNA synthesis
same,"DNA synthesis, ratio experimental/control (E/C)",[8]; compound at 3 μM,0.22 ± 0.15
same,"DNA synthesis, ratio experimental/control (E/C)",[10]; compound at 3 μM,0.05 ± 0.23
same,inhibition at 3.3 µM,"[2]; Homo sapiens, at 3.3 μM",26%
same,"DNA synthesis, ratio experimental/control (E/C)",[2]; compound at 3 μM,0.74 ± 0.05
same,inhibition at 0.03 µM,"[3]; Homo sapiens, at 30 nM",10%
same,inhibition at 0.3 µM,"[3]; Homo sapiens, at 300 nM",50%
same,"DNA synthesis, ratio experimental/control (E/C)",[3]; compound at 0.3 μM,0.41 ± 0.27
same,inhibition at 3 µM,[4]; at 3 μM,40 to 45%
same,"DNA synthesis, ratio experimental/control (E/C)",[4]; compound at 3 μM,0.55 ± 0.03
same,inhibition at 3 µM,"[7]; Homo sapiens, at 3 μM, read-out: inhibition of DNA synthesis / growth",35%
same,"DNA synthesis, ratio experimental/control (E/C)",[7]; compound at 3 μM,0.64 ± 0.16
same,inhibition at 0.3 µM,"[9]; Homo sapiens, at 300 nM, read-out: inhibition of cell growth",40%
"C[C@]12CC[C@@H]3c4ccc(O)cc4C[C@@H](CCCCCCCCC[S+]([O-])CCCC(F)(F)C(F)(F)F)[C@H]3[C@@H]1CC[C@@H]2O (stereo partly shown) [ICI 182780, reference compound]","DNA synthesis, ratio experimental/control (E/C)",[8]; ICI 182780 1.1 μM alone,0.63 ± 0.08
same,"DNA synthesis, ratio experimental/control (E/C)",[8]; ICI 182780 (1.1 μM) + E2 30 nM,0.63 ± 0.08
same,"DNA synthesis, ratio experimental/control (E/C)",[8]; [12],0.92 ± 0.18
same,DNA synthesis (% of control),[8]; [13],63%
same,DNA synthesis (% of control),[8]; estradiol 300 nM + 1.1 μM ICI 182780,92%
same,"DNA synthesis, ratio experimental/control (E/C)",[10]; ICI 182780 1.1 μM alone,0.52 ± 0.12
same,"DNA synthesis, ratio experimental/control (E/C)",[10]; ICI 182780 (1.1 μM) + E2 30 nM,0.53 ± 0.11
same,"DNA synthesis, ratio experimental/control (E/C)",[10]; [12],0.95 ± 0.08
same,DNA synthesis (% of control),[10]; [13],53%
same,DNA synthesis (% of control),[10]; estradiol 0.3 μM + 1.1 μM ICI 182780,95%
"COc1ccc(-c2c(CCCC(=O)O)oc3cc(O)cc(O)c3c2=O)cc1 [Compound 4, 2-(3-carboxypropyl)-7,5-dihydroxy-4′-methoxyisoflavone]",effect on DNA synthesis / growth,[8],stimulated the DNA synthesis
same,effect on DNA synthesis,[1],had no effect
same,effect on DNA synthesis,[2],stimulated DNA synthesis
same,effect on DNA synthesis,[3]; at 300 nM,stimulated DNA synthesis
same,stimulation of DNA synthesis,[4]; concentration not given,273%
same,stimulation of DNA synthesis,[9]; at 300 nM,50%
